Counter-ions that a name gives are not always drawn.
Experiments:
Imidazoline, I1 = assay: Imidazoline, I1; [125I]-Clonidine; assay type: binding; conditions: reference compound, QA/QC; read-out: Ref Kj
Histamine, H1 = biological target: T1, Histamine, H1 (Bos taurus, UniProt P30546); assay: Histamine, H1; [3H]Pyrilamine; assay type: binding
T1 construct: no other source notation after assay name denotes animal cell or animal tissue source; from tissue; host or cells: animal cell or animal tissue, not specified
T1 sequence (P30546 whole entry): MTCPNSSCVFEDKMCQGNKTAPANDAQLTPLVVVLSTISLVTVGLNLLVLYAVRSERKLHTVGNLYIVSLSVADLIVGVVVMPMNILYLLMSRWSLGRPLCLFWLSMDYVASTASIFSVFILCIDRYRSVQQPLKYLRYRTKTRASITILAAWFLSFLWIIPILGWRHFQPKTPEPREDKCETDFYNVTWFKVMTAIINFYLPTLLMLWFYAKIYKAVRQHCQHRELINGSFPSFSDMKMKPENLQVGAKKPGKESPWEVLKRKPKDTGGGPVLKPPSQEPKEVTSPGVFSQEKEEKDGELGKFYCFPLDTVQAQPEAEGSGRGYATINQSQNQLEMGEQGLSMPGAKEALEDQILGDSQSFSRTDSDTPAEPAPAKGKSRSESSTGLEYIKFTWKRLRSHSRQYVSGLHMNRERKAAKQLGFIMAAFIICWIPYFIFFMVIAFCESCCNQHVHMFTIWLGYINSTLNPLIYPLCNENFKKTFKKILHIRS

Melatonin = assay: Melatonin; [125I]-2-Iodomelatonin; assay type: binding; conditions: reference compound, QA/QC; read-out: Ref Kj
Histamine, H3 = assay: Histamine, H3; [3H]N-a-MeHistamine; assay type: binding; conditions: reference compound, QA/QC; read-out: Ref Kj
Imidazoline, I2, central = assay: Imidazoline, I2, central; [3H]2-BFI; assay type: binding; conditions: reference compound, QA/QC; read-out: Ref Kj
Glucocorticoid = Glucocorticoid (UniProt P06536); conditions: read-out: Ref Kj
Glucocorticoid, sequence (P06536 whole entry): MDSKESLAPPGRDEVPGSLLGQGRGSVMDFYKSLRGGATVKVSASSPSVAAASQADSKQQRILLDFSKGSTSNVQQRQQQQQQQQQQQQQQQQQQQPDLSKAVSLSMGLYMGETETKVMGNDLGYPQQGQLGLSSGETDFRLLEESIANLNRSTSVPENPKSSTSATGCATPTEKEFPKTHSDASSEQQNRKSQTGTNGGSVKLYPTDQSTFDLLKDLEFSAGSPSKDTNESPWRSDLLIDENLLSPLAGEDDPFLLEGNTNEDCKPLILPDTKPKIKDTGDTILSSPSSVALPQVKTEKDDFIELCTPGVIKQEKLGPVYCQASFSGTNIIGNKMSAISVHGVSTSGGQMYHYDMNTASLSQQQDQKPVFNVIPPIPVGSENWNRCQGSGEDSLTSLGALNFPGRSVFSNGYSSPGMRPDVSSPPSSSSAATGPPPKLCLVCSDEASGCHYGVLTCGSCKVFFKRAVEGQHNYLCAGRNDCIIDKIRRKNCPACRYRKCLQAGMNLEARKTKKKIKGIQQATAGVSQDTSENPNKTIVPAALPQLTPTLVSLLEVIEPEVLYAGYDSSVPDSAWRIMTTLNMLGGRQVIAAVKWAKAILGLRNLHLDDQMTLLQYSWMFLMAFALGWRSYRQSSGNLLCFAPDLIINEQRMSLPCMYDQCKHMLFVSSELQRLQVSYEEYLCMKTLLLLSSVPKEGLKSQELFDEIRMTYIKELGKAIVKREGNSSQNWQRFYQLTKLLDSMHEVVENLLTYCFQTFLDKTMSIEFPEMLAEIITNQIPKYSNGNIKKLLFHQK

For `Clc1cc(I)cc(Cl)c1NC1=NCCN1` [Iodoclonidine], the Ki (Imidazoline, I1) was 7.89 nM.
With `Cc1ccc(/C(=C\CN2CCCC2)c2ccccn2)cc1` [Triprolidine HCl] the Ki (Histamine, H1) was 3.6 nM.
`CNCCc1cnc[nH]1` [N-a-Methylhistamine (NAMH), N-a-Methylhistamine] was tested, and the Ki (Histamine, H3) was 1.31 nM.
Work on `c1ccc2oc(C3=NCCN3)cc2c1` [2-BFI] yielded a Ki (Imidazoline, I2, central) of 0.054 nM.
Work on `C[C@]12C=CC(=O)C=C1CC[C@H]1[C@@H]3C[C@@H](O)[C@](O)(C(=O)CO)[C@@]3(C)C[C@H](O)[C@@]12F` [Triamcinolone] yielded a Ki (Glucocorticoid) of 1.74 nM.
